Values quoted from earlier work in patent publication US20110071136A1, “NOVEL TRICYCLIC PROTEIN KINASE MODULATORS” (CYLENE PHARMACEUTICALS, INC, priority 2009, published 2011).

Columns and labels:
[1] = system: leukemic cells from AML patients; settings: Fedorov et al., PNAS 104(51), 20523-28
[2] = system: MV-4-11 (AML); settings: MV-4-11 (AML) xenograft model; 2008 AACR Annual Meeting, Abstract No. 4974
[3] = system: MOLM-13 (AML); settings: MOLM-13 (AML) xenograft model; 2008 AACR Annual Meeting, Abstract No. 4974

SMILES	cell growth and cell death [1]	tumor regression [2]	tumor regression [3]
CN(C)C[C@@H]1CCn2cc(c3ccccc32)C2=C(C(=O)NC2=O)c2cn(c3ccccc23)CCO1 [Ly5333'531]	suppressed cell growth and induced cell death	–	–
CN1CCC(CNc2ccc3ncc(-c4cccc(OC(F)(F)F)c4)n3n2)CC1 [SGI-1776]	–	significant tumor regression	significant tumor regression
